Test results taken from US7928093B2, “Amino-propanol derivatives” (Novartis AG, priority 2004, dated 2011).

Columns and labels:
[1] = system: peripheral blood lymphocytes; test: Blood lymphocyte depletion in vivo; conditions: rats, p.o., after 6 h
Procedure: B. In Vivo: Blood Lymphocyte Depletion
A compound of formula I or the vehicle is administered orally by gavage to rats. Tail blood for hematological monitoring is obtained on day −1 to give the baseline individual values, and at 2, 6, 24, 48 and 72 hours after application. In this assay, the compounds of formula I deplete peripheral blood lymphocytes when administered at a dose of 0.03 to 3 mg/kg. For example, following results are obtained: depletion of peripheral blood lymphocytes by more than 50%.

[2] = molecular target: T1, human S1P receptor EDG-1 (S1P1) (Homo sapiens, UniProt P21453); test: S1P receptor profiling, GTP[γ-35S] binding SPA; format: biochemical; design: key to S1P1 mode of action: Agon = agonist; conditions: for EC50: membranes of transfected CHO or RH7777 cells
T1 construct: expressed in transfected cells
Procedure: (§1) Sphingosine-1-phosphate (S1P) Receptor Profiling
(§2) Agonist activities of compounds are tested on the human S1P receptors EDG-1 (S1P1), EDG-3 (S1P3), EDG-5 (S1P2), EDG-6 (S1P4) and EDG-8 (S1P5). […] The assay technology used is SPA (scintillation proximity based assay). Briefly, DMSO dissolved compounds are serially diluted and added to SPA-bead (Amersham-Pharmacia) immobilised SIP receptor expressing membrane protein (10-20 μg/well) in the presence of 50 mM Hepes, 100 mM NaCl, 10 mM MgCl2, 10 μM GDP, 0.1% fat free BSA and 0.2 nM GTP [γ-^35S] (1200 Ci/mmol). After incubation in 96 well microtiterplates at RT for 120 min, unbound GTP [γ-^35S] is separated by a centrifugation step. Luminescence of SPA beads triggered by membrane bound GTP [γ-^35S] is quantified with a TOPcount plate reader (Packard). EC50s are calculated using standard curve fitting software. In this assay, the compounds of formula I have a binding affinity to S1P1 receptor <50 nM.

[3] = molecular target: T2, human S1P receptor EDG-3 (S1P3) (Homo sapiens, UniProt Q99500); test: S1P receptor profiling, GTP[γ-35S] binding SPA; format: biochemical; design: key to S1P3 mode of action: Agon = agonist; conditions: for EC50: membranes of transfected CHO or RH7777 cells
T2 construct: expressed in transfected cells
Procedure: as §1, §2

[4] = molecular target: T3, human S1P receptor EDG-6 (S1P4) (Homo sapiens, UniProt O95977); test: S1P receptor profiling, GTP[γ-35S] binding SPA; format: biochemical; design: key to S1P4 mode of action: Agon = agonist; conditions: for EC50: membranes of transfected CHO or RH7777 cells
T3 construct: expressed in transfected cells
T3 sequence (O95977 1-384): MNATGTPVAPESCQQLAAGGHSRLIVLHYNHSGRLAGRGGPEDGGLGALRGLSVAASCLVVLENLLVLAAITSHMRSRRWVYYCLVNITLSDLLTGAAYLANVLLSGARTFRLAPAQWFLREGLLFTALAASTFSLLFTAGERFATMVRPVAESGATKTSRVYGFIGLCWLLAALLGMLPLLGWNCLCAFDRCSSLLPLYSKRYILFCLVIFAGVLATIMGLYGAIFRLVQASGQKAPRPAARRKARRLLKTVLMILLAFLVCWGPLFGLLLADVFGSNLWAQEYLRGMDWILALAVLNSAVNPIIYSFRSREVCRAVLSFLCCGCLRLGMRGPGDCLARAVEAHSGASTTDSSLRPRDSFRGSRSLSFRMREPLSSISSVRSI
Procedure: as §1, §2

[5] = molecular target: T4, human S1P receptor EDG-8 (S1P5) (Homo sapiens, UniProt Q9H228); test: S1P receptor profiling, GTP[γ-35S] binding SPA; format: biochemical; design: key to S1P5 mode of action: Agon = agonist; conditions: for EC50: membranes of transfected CHO or RH7777 cells
T4 construct: expressed in transfected cells
Procedure: as §1, §2

T1 sequence (P21453 whole entry): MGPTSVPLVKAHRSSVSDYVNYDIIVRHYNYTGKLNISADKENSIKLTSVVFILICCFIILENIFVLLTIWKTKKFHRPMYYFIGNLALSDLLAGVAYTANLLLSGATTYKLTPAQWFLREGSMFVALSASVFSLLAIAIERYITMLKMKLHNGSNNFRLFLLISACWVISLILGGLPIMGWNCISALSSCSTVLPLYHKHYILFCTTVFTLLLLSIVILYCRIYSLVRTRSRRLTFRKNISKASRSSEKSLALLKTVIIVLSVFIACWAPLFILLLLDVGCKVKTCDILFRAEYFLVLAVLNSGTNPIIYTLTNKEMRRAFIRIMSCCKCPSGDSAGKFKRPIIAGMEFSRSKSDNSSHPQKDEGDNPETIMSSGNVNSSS
T2 sequence (Q99500 whole entry): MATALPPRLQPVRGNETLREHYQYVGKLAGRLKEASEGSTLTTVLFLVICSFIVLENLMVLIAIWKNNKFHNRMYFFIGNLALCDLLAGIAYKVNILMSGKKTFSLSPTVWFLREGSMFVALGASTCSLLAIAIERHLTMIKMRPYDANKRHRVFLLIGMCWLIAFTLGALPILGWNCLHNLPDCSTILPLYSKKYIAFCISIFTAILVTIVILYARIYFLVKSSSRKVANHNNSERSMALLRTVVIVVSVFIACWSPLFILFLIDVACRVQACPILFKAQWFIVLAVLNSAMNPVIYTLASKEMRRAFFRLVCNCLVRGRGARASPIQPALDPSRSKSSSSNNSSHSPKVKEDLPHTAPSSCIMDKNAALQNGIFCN
T4 sequence (Q9H228 whole entry): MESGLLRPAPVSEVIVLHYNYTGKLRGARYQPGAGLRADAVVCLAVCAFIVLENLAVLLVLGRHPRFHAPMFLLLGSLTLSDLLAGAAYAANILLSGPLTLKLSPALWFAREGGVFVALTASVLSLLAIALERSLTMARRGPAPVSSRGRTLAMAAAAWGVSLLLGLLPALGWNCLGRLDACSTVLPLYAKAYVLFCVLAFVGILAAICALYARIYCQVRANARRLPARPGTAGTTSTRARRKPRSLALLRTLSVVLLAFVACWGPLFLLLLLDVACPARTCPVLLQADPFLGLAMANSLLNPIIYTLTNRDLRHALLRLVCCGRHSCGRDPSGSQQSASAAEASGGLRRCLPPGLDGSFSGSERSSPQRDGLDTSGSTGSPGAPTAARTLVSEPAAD

| Compound | dose giving depletion of peripheral blood lymphocytes by more than 50% [1] [mg/kg] | S1P1 mode of action [2] | EC50 [2] [nM] | S1P3 mode of action [3] | EC50 [3] [nM] | S1P4 mode of action [4] | EC50 [4] [nM] | S1P5 mode of action [5] | EC50 [5] [nM] |
| --- | --- | --- | --- | --- | --- | --- | --- | --- | --- |
| CCCCCCCOc1ccc(CC[C@@](C)(N)[C@@H](C)O)cc1 [Example 1, (2R,3R)-3-Amino-5-(4-heptyloxy-phenyl)-3-methyl-pentan-2-ol] | 0.07 | – | – | – | – | – | – | – | – |
| CCCCCOc1ccc2cc(CC[C@@](C)(N)[C@@H](C)O)ccc2c1 [Example 12, (2R,3R)-3-Amino-5-(6-pentyloxy-naphthalen-2-yl)-3-methyl-pentan-2-ol] | 0.4 | – | – | – | – | – | – | – | – |
| C[C@H](O)[C@](C)(N)CCc1ccc(OCCCCCc2ccccc2)cc1 [Example 13, (2S,3R)-3-Amino-3-methyl-5-[4-(5-phenyl-pentyloxy)-phenyl]-pentan-2-ol] | 0.5 | – | – | – | – | – | – | – | – |
| C[C@@H](O)[C@](C)(N)CCc1ccc(OCCCCc2ccccc2)cc1 [Example 14, (2R,3R)-3-Amino-3-methyl-5-[4-(4-phenyl-butoxy)-phenyl]-pentan-2-ol] | 0.1 | – | – | – | – | – | – | – | – |
| C[C@H](O)[C@](C)(N)CCc1ccc(OCCCCc2ccccc2)cc1 [Example 15, (2S,3R)-3-Amino-3-methyl-5-[4-(4-phenyl-butoxy)-phenyl]-pentan-2-ol] | 0.6 | – | – | – | – | – | – | – | – |
| C[C@@H](O)[C@](C)(N)CCc1ccc(OCCc2ccc(-c3ccccc3)cc2)cc1 [Example 17, (2R,3R)-3-Amino-5-[4-(2-biphenyl-4-yl-ethoxy)-phenyl]-3-methyl-pentan-2-ol] | 0.2 | – | – | – | – | – | – | – | – |
| CCCCCCCOc1ccc(CC[C@@](C)(N)[C@@H](C)OP(=O)(O)O)cc1 [Example 18, Phosphoric acid mono-[(1R,2R)-2-amino-4-(4-heptyloxy-phenyl)-1,2-dimethyl-butyl]ester] | – | Agon | 0.51 | Agon | 4.6 | Agon | 0.7 | Agon | 0.74 |
| CCCCCCCOc1ccc(CC[C@@](C)(N)[C@H](C)OP(=O)(O)O)cc1 [Example 19, Phosphoric acid mono-[(1S,2R)-2-amino-4-(4-heptyloxy-phenyl)-1,2-dimethyl-butyl]ester] | – | Agon | 0.07 | Agon | 1.4 | Agon | 0.4 | Agon | 0.15 |
| CCCCCOc1ccc2cc(CC[C@@](C)(N)[C@@H](C)OP(=O)(O)O)ccc2c1 [Example 20, Phosphoric acid mono-[(1R,2R)-2-amino-1,2-dimethyl-4-(6-pentyloxy-naphthalen-2-yl)-butyl]ester] | – | Agon | 0.13 | Agon | 8.5 | Agon | 0.67 | Agon | 0.29 |
